Columns and labels:
Format in all cases: cell-based
keratin 1 (KRT1) = experiment: Western blotting of keratinocyte differentiation marker KRT1 in UVB-irradiated keratinocytes; details: human keratinocytes, coumestrol 1 μM, 5 μM, 10 μM, FIG. 2
Method: (§1) Human keratinocytes (normal human epidermal keratinocytes, NHEK) were cultured in a 6-well plate incubator. Specifically, the normal human epidermal keratinocytes were cultured by replacing it with phosphate-buffered saline (PBS) after 24 hours to irradiate UVB (25 mJ/cm^2) and then, adding cortisone (10 μM) to NHEK culture media having no hydrocortisone. Subsequently, the cell culture solution was collected to measure a cortisol concentration in an ELISA method, and the results are shown in FIG. 1.
(§2) In addition, after separating proteins from the human keratinocytes using a RIPA lysis buffer, protein expression of keratinocyte differentiation markers (KRT1, Filaggrin) was confirmed through western blotting, and the results are shown in FIGS. 2 and 3. Referring to FIGS. 2 and 3, in the wells containing the coumestrol (1 μM, 5 μM, 10 μM), gene expression of the keratinocyte differentiation markers (KRT1, Filaggrin) inhibited by the ultraviolet (UVB) rays was increased in the keratinocytes. In other words, the gene expression of the keratinocyte differentiation markers inhibited by the ultraviolet (UVB) rays in the keratinocytes was restored by the coumestrol, and accordingly, the coumestrol inhibited activity of the cortisone reductase and reduced the cortisol concentration, eventually restoring the gene expression of the keratinocyte differentiation markers.

Filaggrin = experiment: Western blotting of keratinocyte differentiation marker filaggrin in UVB-irradiated keratinocytes; details: human keratinocytes, coumestrol 1 μM, 5 μM, 10 μM, FIG. 3
Method: as §1, §2

[1] = biological target: T1, 11β-hydroxysteroid dehydrogenase type 1 (Homo sapiens, UniProt P28845); experiment: Cortisol concentration in cell culture solution of UVB-irradiated, cortisone-treated keratinocytes (ELISA); details: coumestrol 1 μM, 5 μM
T1 construct: endogenous in cells; host or cells: normal human epidermal keratinocytes (NHEK)
T1 sequence (P28845 whole entry): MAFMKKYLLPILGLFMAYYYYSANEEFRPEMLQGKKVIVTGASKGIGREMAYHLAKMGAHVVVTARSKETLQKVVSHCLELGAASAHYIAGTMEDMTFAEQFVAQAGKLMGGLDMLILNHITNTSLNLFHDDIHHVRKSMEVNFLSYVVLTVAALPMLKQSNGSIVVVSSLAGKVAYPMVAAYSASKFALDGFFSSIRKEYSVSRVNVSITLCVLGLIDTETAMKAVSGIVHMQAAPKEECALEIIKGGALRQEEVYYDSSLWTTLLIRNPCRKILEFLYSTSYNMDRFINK
Method: as §1

- cortisol concentration in cell culture solution ([1]; NHEK, UVB 25 mJ/cm^2, cortisone 10 μM, compared with control before UV irradiation, FIG. 1): not significantly increased
- activity of 11β-hydroxysteroid dehydrogenase type 1 (cortisone reductase) ([1]; conclusion from cortisol ELISA in NHEK, 10 μM): inhibit activity
Compound: O=c1oc2cc(O)ccc2c2oc3cc(O)ccc3c12 [coumestrol]
- expression of keratinocyte differentiation marker KRT1 inhibited by UVB (keratin 1 (KRT1)): increased
- expression of keratinocyte differentiation marker Filaggrin inhibited by UVB (Filaggrin): increased

Reference: patent US12569422B2, “Composition and method of inhibiting cortisone reductase by applying it to the skin” (AMOREPACIFIC CORPORATION, priority 2018, dated 2026)
